According to patent US6664251B2, “Benzothiazine derivative” (Daiichi Suntory Pharma Co., Ltd., priority 1993, dated 2003):

Columns and labels:
serotonin-2 receptor = assay: Anti-serotonin action (anti-5-HT action): contraction of isolated superior mesenteric artery induced by serotonin; conditions: contraction induced by 10^−5 M serotonin (5-HT) taken as 100%, Hartley male guinea pig superior mesenteric artery; for Anti 5-HT action (% of Control) 10^−6 M: test drug 10^−6 M; for Anti 5-HT action (% of Control) 10^−7 M: test drug 10^−7 M
Method: (1) Anti-Serotonin Action (Anti-5-HT Action)
A preparation cut in a helical form was suspended under 0.3 g load in a Magnus cylinder filled with the Tyrode solution which had been aerated with a gas mixture of 95% O2+5% CO2 and maintained at 37° C. Using an isometric transducer (“UL-10”, manufactured by SHINKOH K.K.) and a pressure preamplifier (“DSA-605A”, manufactured by SHINKOH K.K.), variations in tension were measured. The isometric tensions were recorded on a pen-writing recorder (“VP-6537A”, manufactured by NATIONAL K.K.). Taking the contraction induced by 10^−5 M serotonin (5-HT) as 100%, the percent contractions in the presence of each test drug at 10^−7 and 10^−6 M were determined as anti-5-HT action.

α1 receptor = assay: Anti-α1 action: tonic contraction of isolated thoracic aorta induced by norepinephrine; conditions: tonic contraction induced by 10^−5 M norepinephrine (NE) taken as 100%, Hartley male guinea pig thoracic aorta; for Anti α1 action (% of Control) 10^−7 M: test drug 10^−7 M; for Anti α1 action (% of Control) 10^−8 M: test drug 10^−8 M
Method: The thoracic aorta of each Hartley male guinea pig (body weight: 300-500 g) was excised. A preparation cut in a helical form was suspended under 1 g load in a Magnus cylinder filled with the Tyrode solution which had been aerated with a gas mixture of 95% O2+5% CO2 and maintained at 37° C. Using an isometric transducer (“TB-612J”, manufactured by NIHON KOHDEN) and a pressure preamplifier (“AP-620G”, manufactured by NIHON KOHDEN), variations in tension were measured. The isometric tensions were recorded on a thermal pen-writing recorder (“WT-647G”, manufactured by NIHON KOHDEN).
Taking the tonic contraction induced by 10^−5 M norepinephrine (NE) as 100%, the percent contractions upon addition of each test drug at 10^−8 and 10^−7 M were determined as anti-α1 action.

| Structure (SMILES) | Anti 5-HT action (% of Control) 10^−6 M (serotonin-2 receptor) | Anti 5-HT action (% of Control) 10^−7 M (serotonin-2 receptor) | Anti α1 action (% of Control) 10^−7 M (α1 receptor) | Anti α1 action (% of Control) 10^−8 M (α1 receptor) |
| --- | --- | --- | --- | --- |
| COc1ccc2c(c1)C1(CN(CCCN3CCN(c4ccc(F)cc4)CC3)S2(=O)=O)OCCO1 [Compound No. 115, 2-[3-[4-(4-fluorophenyl)piperazin-1-yl]propyl]-6-methoxy-3,4-dihydro-2H-1,2-benzothiazin-4-one 1,1-dioxide ethylene acetal] | 14.1 % of Control | 63.0 % of Control | 62.3 % of Control | 100.4 % of Control |
| COc1ccc2c(c1)C1(CN(CCCN3CCC(C(=O)c4ccc(F)cc4)CC3)S2(=O)=O)OCCO1 [Compound No. 116, 2-[3-[4-(4-fluorobenzoyl)piperidino]-propyl]-6-methoxy-3,4-dihydro-2H-1,2-benzothiazin-4-one 1,1-dioxide ethylene acetal] | 13.9 % of Control | 40.2 % of Control | 88.3 % of Control | 100.7 % of Control |
| O=S1(=O)c2ccc(Cl)cc2C2(CN1CCCN1CCN(c3ccc(F)cc3)CC1)OCCO2 [Compound No. 117, 6-chloro-2-[3-[4-(4-fluorophenyl)piperazin-1-yl]propyl]-3,4-dihydro-2H-1,2-benzothiazin-4-one 1,1-dioxide ethylene acetal] | 23.6 % of Control | 48.0 % of Control | 80.2 % of Control | 97.1 % of Control |
| COc1ccc2c(c1)S(=O)(=O)N(CCCN1CCC(C(=O)c3ccc(F)cc3)CC1)CC21OCCO1 [Compound No. 120, 2-[3-[4-(4-fluorobenzoyl)piperidino]propyl]-7-methoxy-3,4-dihydro-2H-1,2-benzothiazin-4-one 1,1-dioxide ethylene acetal] | 20.3 % of Control | 51.6 % of Control | 71.6 % of Control | 93.2 % of Control |
| COc1cccc2c1C1(CN(CCCN3CCN(c4ccc(F)cc4)CC3)S2(=O)=O)SCCS1 [Compound No. 123, 2-[3-[4-(4-fluorophenyl)piperazin-1-yl]propyl]-5-methoxy-3,4-dihydro-2H-1,2-benzothiazine-4-spiro-2′-(1′,3′-dithiolane) 1,1-dioxide] |  | 49.3 % of Control | 13.0 % of Control | 97.9 % of Control |
| O=S1(=O)c2ccccc2C2(CN1CCCN1CCN(c3ccccc3F)CC1)OCCO2 [compound 35, 2-[3-[4-(2-fluorophenyl)piperazin-1-yl]propyl]-3,4-dihydro-2H-1,2-benzothiazin-4-one 1,1-dioxide ethylene acetal] | 7.5 % of Control | 38.3 % of Control | 89.3 % of Control | 99.0 % of Control |
